In patent US9376424B2, “Methods for treating post traumatic stress disorder” (AZEVAN PHARMACEUTICALS, INC., priority 2010, dated 2016):

Experiments:
V1b receptor = target: T1, V1b receptor (Homo sapiens, UniProt P47901); experiment: Human or rat vasopressin V1b cell-based receptor binding assay; conditions: selectivity table; read-out: inhibition data (Ki, nM), Receptor V1b
T1 construct: expressed in transfected cells; host or cells: CHO-K1 (ATCC), vector PCI-neo
T1 sequence (P47901 1-424): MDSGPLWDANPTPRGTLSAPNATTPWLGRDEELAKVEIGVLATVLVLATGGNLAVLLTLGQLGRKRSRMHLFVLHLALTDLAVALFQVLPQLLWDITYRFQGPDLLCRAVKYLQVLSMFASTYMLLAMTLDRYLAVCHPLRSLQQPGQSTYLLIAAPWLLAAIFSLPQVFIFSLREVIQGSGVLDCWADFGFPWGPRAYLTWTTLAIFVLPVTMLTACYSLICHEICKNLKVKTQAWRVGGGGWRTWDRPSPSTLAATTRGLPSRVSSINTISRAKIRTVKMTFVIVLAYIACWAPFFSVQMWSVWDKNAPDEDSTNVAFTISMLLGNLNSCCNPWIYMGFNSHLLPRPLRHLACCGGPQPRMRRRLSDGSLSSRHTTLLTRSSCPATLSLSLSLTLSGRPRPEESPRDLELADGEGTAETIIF
Description: Human vasopression V1b receptor-expressing cells. Human vasopressin receptor 1b (hV1b) cDNA (see, Lolait et al., “Extrapituitary expression of the rat V1b vasopressin receptor gene” Proc. Natl. Acad. Sci. USA. 92:6783-7 (1995); de Keyzer et al., “Cloning and characterization of the human V3(V1b) pituitary vasopressin receptor” FEBS Lett. 356:215-20 (1994); Sugimoto et al., “Molecular cloning and functional expression of a cDNA encoding the human V1b vasopressin receptor” J. Biol. Chem. 269:27088-92 (1994)) was inserted into a mammalian cell expression vector PCI-neo (Promega) at EcoR1 site. The recombinant plasmid carrying hV1b cDNA was identified from transformed E. Coli clones and used for the transfection of Chinese hamster ovary cell (CHO-K1, ATCC). Two micrograms of hV1b receptor DNA was introduced into 10^5 CHO cells cultured in 6-well plate, using Fugene-6 mediated transfection technique (Boehringer Mannheim). Twenty-four hrs post transfection, Cells were then cultured under selection of G-418 (0.25 mg/ml) supplemented to the culture medium. Three days later, limited dilution was carried out to obtain single cell clones in 96-well plates. […]
Human or rat vasopression V1b cell-based receptor binding assay. […] Samples were counted in a liquid scintillation counter (Beckman LS3801). IC50 and Ki values were calculated using Prism Curve fitting software. […]

V2 = V2 (Homo sapiens, UniProt P30518); experiment: V2 receptor inhibition data (Ki); type: binding; conditions: selectivity table
Sequence of V2 (P30518 whole entry): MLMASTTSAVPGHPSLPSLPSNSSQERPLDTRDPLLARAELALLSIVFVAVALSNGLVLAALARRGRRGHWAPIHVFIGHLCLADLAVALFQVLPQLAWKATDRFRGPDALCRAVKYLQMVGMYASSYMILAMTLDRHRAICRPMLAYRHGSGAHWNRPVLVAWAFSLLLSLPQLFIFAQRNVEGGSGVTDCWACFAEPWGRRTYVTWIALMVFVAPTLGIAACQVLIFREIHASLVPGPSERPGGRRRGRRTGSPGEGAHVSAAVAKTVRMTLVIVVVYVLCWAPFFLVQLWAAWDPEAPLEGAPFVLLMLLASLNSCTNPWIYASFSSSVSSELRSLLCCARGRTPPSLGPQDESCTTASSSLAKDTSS

resident male rats = experiment: Resident-Intruder Model of Stress and Aggression in Rats (neuroimaging); type: in vivo, rat; conditions: oral administration, intruder stimulus
Description: Resident-Intruder Model of Stress and Aggression in Rats. Neuroimaging is used to assess the blockade of stress/arousal with test compound compared to control. The effect of AVN251-HCl on functional circuitry was examined using the imaging method for awake rats. Additional details of the assay are described in Ferris et al. (2008).
Male rats in the company of a female cage mate will piloerect in the presence of a male intruder. This piloerection is a sign of stress and aggressive intent and is associated with activation of stress/arousal circuits in the brain. […] Resident male rats from six male:female pairs were imaged while fully awake. During a single imaging session, these males were treated with vehicle or AVN251-HCl (5 mg/kg).
The total volume of brain activation for resident males confronted with their mate alone, mate plus intruder, and mate plus intruder in the presence of AVN251-HCl can be viewed as 3D models. While there appears to be a general decrease in BOLD signal in major regions with AVN251-HCl treatment, sexual motivation, as assessed by the presentation of a novel receptive female, was unaffected by V1a receptor blockade.
Stress circuit activation in response to an intruder male is assessed by obtaining brain scans viewed from a caudal/dorsal perspective as translucent shells. The localization of activated voxels is mapped as 3D volumes of activation, which are composed of 10 subjects each. Once fully registered and segmented, the statistical responses for each subject are averaged on a voxel-by-voxel basis. Those averaged voxels exceeding a 2.0% threshold are shown in their appropriate spatial location. Functional images are acquired on awake rats at 4.7 T.
The 3D volumes of activation are composed from results obtained with 10 subjects in each condition. […] Particular olfactory systems measured included the anterior olfactory nucleus, olfactory tubercle, piriform cortex, n. laterial olfactory tract, and entrorhinal cortex. Particular dopaminergic systems measured included the prelimbic cortex, accumbens, ventral pallidum, medial dorsal thalamus, and ventral tegmentum.
Awake rats were imaged when presented with their mate+an intruder, a highly stressful stimulus.

- Ki (V1b receptor): > 1000 nM
- Ki (V2): > 1000 nM
Compound: C[C@@H](NC(=O)[C@@H](CC(=O)N1CCC(N2CCCCC2)CC1)N1C(=O)[C@@H](N2C(=O)OC[C@@H]2c2ccccc2)[C@H]1C=Cc1ccccc1)c1ccccc1 [Example 224, 2(R)-[[4-(Piperidinyl)piperidinyl]carbonylmethyl]-2-[3(S)-(4(S)-phenyloxazolidin-2-on-3-yl)-4(R)-(2-styryl)azetidin-2-on-1-yl]acetic acid N—[(R)-α-methylbenzyl]amide]
- stress and aggressive motivation compared to controls (resident male rats): blocked stress and aggressive motivation
